The source of these data is publication PMC11519908, “Luminescent Ln(III)-Metallopeptide Sensors for Monitoring Pseudomonas aeruginosa Elastase B Activity in Complex Biological Media” (ACS Sensors, 2024).

A short description of series [1]: Luminescence of probe in the presence of H2O2. The following applies: 5 µM probe, 0.5 mM H2O2, HEPES buffer pH 8, 37 °C, time-gated emission. Type of series: physicochemical.
Series [2] concerns supernatant from P. aeruginosa strain producing LasB. In kind it is biochemical, Pseudomonas aeruginosa. The following applies: P1[Tb]: 0.5 mM probe, 50 mM CaCl2, HEPES buffer, 9 µL supernatant, RT, 1 h before injection.
In another series the test system is E. coli supernatant. The note with it: 10 µM probe, 1 mM CaCl2, HEPES buffer, 10 µL E. coli supernatant, 20 h at 37 °C, time-gated emission.
The next series has as its target LasB (Pseudomonas aeruginosa, UniProt P14756). The following applies: 1, 5, 7.5, 10 µM probe, 1 mM CaCl2, 60.6 nM (2 µg/mL) LasB, 10 mM HEPES pH 8.0, 37 °C, time-gated emission every 15 min for 10 h, fit to hit-and-run model (Dynafit).
The nature of series [3]: Luminescence of probe in the presence of pyocyanin and P. aeruginosa supernatant. In kind it is physicochemical.
The subject of series [4] is supernatant from the P. aeruginosa strain producing LasB. The experiment in a line: Luminescence of probe with LasB-secreting P. aeruginosa supernatant with and without EDTA. In kind it is biochemical, Pseudomonas aeruginosa.
The nature of series [5]: Luminescence of probe in the presence of glutathione. In kind it is physicochemical. The note with it: 5 µM probe, 100 µM GSH, HEPES buffer pH 8, 37 °C, time-gated emission.

Chain of LasB (P14756 198-498): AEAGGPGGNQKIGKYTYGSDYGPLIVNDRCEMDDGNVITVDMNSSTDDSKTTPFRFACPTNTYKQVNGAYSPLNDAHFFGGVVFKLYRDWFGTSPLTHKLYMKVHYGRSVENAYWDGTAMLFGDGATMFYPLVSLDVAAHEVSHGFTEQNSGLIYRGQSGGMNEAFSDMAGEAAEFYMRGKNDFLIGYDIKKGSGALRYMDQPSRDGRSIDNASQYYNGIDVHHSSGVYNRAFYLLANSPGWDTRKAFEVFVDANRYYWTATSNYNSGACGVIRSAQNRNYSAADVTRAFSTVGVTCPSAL

Consider “EGLAEW [P1[Tb], green-emitting metallopeptide: DO3A-Tb(III) complex at N-terminus of EGLAEW, Trp as sensitizing unit]”, for which the “luminescence response to P. aeruginosa supernatant added after incubation in 1.2% FBS” value is “gradual reduction in the luminescence emission”. The “change of luminescence 20 h after addition of H2O2” value in series [1] is listed as “remained constant”. Also, the “time of stable luminescence in 1.2% FBS” value (10 µM probe, 1.2% v/v fetal bovine serum in HEPES buffer, 37 °C, time-gated emission every hour for 12 h) is given as “at least 12 h”. Besides, the “cleavage of probe by wild-type P. aeruginosa supernatant (HPLC-MS)” value in series [2] is on record as “cleaved at the G-L bond”. Further, the “change of luminescence with E. coli supernatant” value with E. coli supernatant is “no changes in the luminescence”. The “apparent rate constant ksub (equivalent to specificity constant kcat/Km)” value on LasB is 0.438 ± 0.007 μM^–1min^–1. In series [3], the “probe activity toward P. aeruginosa supernatant in the presence of pyocyanin” value is reported as “remained active”. In series [3] (5 µM probe, 1 µM pyocyanin, HEPES buffer, 37 °C, time-gated emission), the “reduction of emission band intensity on incubation with pyocyanin” value is reported as “approximately 20%”. Further, in series [4], the “reduction of luminescence 3 h after supernatant addition, in the absence of EDTA” value is “approximately 90%” and the “reduction of luminescence 3 h after supernatant addition, with EDTA” value is listed as “approximately 30%”. In addition, the “change of luminescence 20 h after addition of glutathione” value in series [5] was “remained constant”.
